# In PubChem BioAssay (NCI):
#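 Exposure lasted 48 hours, with cells grown in 96-well plates and compounds tested at five concentrations. GI50 marks 50% less growth. TGI marks complete inhibition of growth.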
# Key:
# Experiment in all cases: inhibition of tumour cell growth, NCI panel, 48 h
# [1] = test system: HT29 colon
# [2] = test system: UO-31 renal
# [3] = test system: MDA-MB-231 breast
# [4] = test system: MOLT-4 leukemia
# [5] = test system: SK-MEL-5 melanoma
# [6] = test system: M14 melanoma
# [7] = test system: A549 NSCLC
# [8] = test system: MCF7 breast
# [9] = test system: SR leukemia
# [10] = test system: NCI-H460 lung
# [11] = test system: SF-268 CNS
# [12] = test system: T-47D breast
# [13] = test system: U251 CNS
# [14] = test system: BT-549 breast
# [15] = test system: CCRF-CEM leukemia
# [16] = test system: A498 renal
# [17] = test system: UACC-62 melanoma
# [18] = test system: HOP-92 NSCLC
# [19] = test system: RPMI-8226 leukemia
# [20] = test system: NCI-H23 lung
# [21] = test system: KM12 colon
# [22] = test system: UACC-257 melanoma
# [23] = test system: SK-MEL-28 melanoma
# [24] = test system: DU-145 prostate
# [25] = test system: HOP-62 NSCLC
# [26] = test system: SN12C renal
# [27] = test system: ACHN renal
# [28] = test system: TK-10 renal
# [29] = test system: SW-620 colon
# [30] = test system: NCI/ADR-RES ovarian
# [31] = test system: NCI-H226 lung
# [32] = test system: HCT-15 colon
# [33] = test system: EKVX NSCLC
# [34] = test system: HS 578T breast
# [35] = test system: RXF 393 renal
# [36] = test system: HCC-2998 colon
# [37] = test system: 786-0 renal
# [38] = test system: IGROV1 ovarian
# [39] = test system: CAKI-1 renal
# [40] = test system: LOX IMVI melanoma
# [41] = test system: PC-3 prostate
# [42] = test system: MDA-MB-435
# [43] = test system: NCI-H522 lung
# [44] = test system: HCT-116 colon
# [45] = test system: K-562 leukemia
# [46] = test system: OVCAR-5 ovarian
# [47] = test system: SNB-19 CNS
# [48] = test system: OVCAR-8 ovarian
# [49] = test system: SK-OV-3 ovarian
# [50] = test system: SF-539 CNS
# [51] = test system: OVCAR-4 ovarian
# [52] = test system: HL-60(TB) leukemia
# [53] = test system: SK-MEL-2 melanoma
# [54] = test system: SNB-75 CNS
# [55] = test system: MALME-3M melanoma
# [56] = test system: SF-295 CNS
# [57] = test system: OVCAR-3 ovarian
# [58] = test system: COLO 205 colon
smiles,measurement,setting,value
C/C(=N/NC(N)=S)c1ccc(Nc2nc(SCC(C)C)nc(-c3ccc(F)cc3)c2C#N)cc1,GI50,[1],1.28 µM
same,TGI,[1],15.6 µM
same,GI50,[2],2.75 µM
same,TGI,[2],15.4 µM
same,GI50,[3],5.91 µM
same,TGI,[3],25.9 µM
same,GI50,[4],2.07 µM
same,TGI,[4],79.2 µM
same,GI50,[5],2.74 µM
same,TGI,[5],15.6 µM
same,GI50,[6],4.41 µM
same,TGI,[6],26 µM
same,GI50,[7],0.488 µM
same,TGI,[7],10.9 µM
same,GI50,[8],0.696 µM
same,TGI,[8],28.8 µM
same,GI50,[9],0.509 µM
same,TGI,[9],18.9 µM
same,GI50,[10],0.414 µM
same,TGI,[10],10.3 µM
same,GI50,[11],10.9 µM
same,TGI,[11],33.1 µM
same,GI50,[12],2.11 µM
same,TGI,[12],29.8 µM
same,GI50,[13],0.77 µM
same,TGI,[13],11 µM
same,GI50,[14],4.04 µM
same,TGI,[14],18.4 µM
same,GI50,[15],5.83 µM
same,TGI,[15],> 100 µM
same,GI50,[16],2.99 µM
same,TGI,[16],8.8 µM
same,GI50,[17],1.66 µM
same,TGI,[17],10.5 µM
same,GI50,[18],1.12 µM
same,TGI,[18],5.01 µM
same,GI50,[19],3.26 µM
same,TGI,[19],80.3 µM
same,GI50,[20],1.72 µM
same,TGI,[20],12 µM
same,GI50,[21],12.7 µM
same,TGI,[21],> 100 µM
same,GI50,[22],4.56 µM
same,TGI,[22],30.1 µM
same,GI50,[23],2.76 µM
same,TGI,[23],13.4 µM
same,GI50,[24],1.55 µM
same,TGI,[24],20.3 µM
same,GI50,[25],3.04 µM
same,TGI,[25],13.6 µM
same,GI50,[26],0.717 µM
same,TGI,[26],14.1 µM
same,GI50,[27],0.423 µM
same,TGI,[27],11.4 µM
same,GI50,[28],3.56 µM
same,TGI,[28],18.9 µM
same,GI50,[29],0.62 µM
same,TGI,[29],> 100 µM
same,GI50,[30],1.89 µM
same,TGI,[30],19.1 µM
same,GI50,[31],1.46 µM
same,TGI,[31],14.1 µM
same,GI50,[32],0.928 µM
same,TGI,[32],> 100 µM
same,GI50,[33],4.53 µM
same,TGI,[33],25.4 µM
same,GI50,[34],3.08 µM
same,TGI,[34],54.1 µM
same,GI50,[35],1.95 µM
same,TGI,[35],7.16 µM
same,GI50,[36],5.69 µM
same,TGI,[36],31.4 µM
same,GI50,[37],2.07 µM
same,TGI,[37],13.8 µM
same,GI50,[38],4.82 µM
same,TGI,[38],21.4 µM
same,GI50,[39],1.65 µM
same,TGI,[39],7.49 µM
same,GI50,[40],1.13 µM
same,TGI,[40],10.4 µM
same,GI50,[41],0.59 µM
same,TGI,[41],5.52 µM
same,GI50,[42],2.14 µM
same,TGI,[42],17.4 µM
same,GI50,[43],2.59 µM
same,TGI,[43],13.1 µM
same,GI50,[44],0.539 µM
same,TGI,[44],13.6 µM
same,GI50,[45],1.41 µM
same,TGI,[45],> 100 µM
same,GI50,[46],6.94 µM
same,TGI,[46],47.5 µM
same,GI50,[47],9.08 µM
same,TGI,[47],22.4 µM
same,GI50,[48],3.22 µM
same,TGI,[48],26.4 µM
same,GI50,[49],3.1 µM
same,TGI,[49],13.7 µM
same,GI50,[50],2.01 µM
same,TGI,[50],10.4 µM
same,GI50,[51],0.329 µM
same,TGI,[51],2.23 µM
same,GI50,[52],17.9 µM
same,TGI,[52],> 100 µM
same,GI50,[53],5.09 µM
same,TGI,[53],19 µM
same,GI50,[54],0.418 µM
same,TGI,[54],3.95 µM
same,GI50,[55],1.88 µM
same,TGI,[55],11.6 µM
same,GI50,[56],0.598 µM
same,TGI,[56],2.69 µM
same,GI50,[57],0.685 µM
same,TGI,[57],4.95 µM
same,GI50,[58],1.18 µM
same,TGI,[58],22.1 µM
